Measurements as given in PMC10247784, “Physiological activation of human and mouse bitter taste receptors by bile acids” (Communications Biology, 2023).

Molecular target: T1, mouse Tas2r108 (Mus musculus, UniProt Q9JKT3)
T1 construct: expressed in transfected cells; host or cells: HEK293T-Gα16gust44
T1 sequence (Q9JKT3 1-297): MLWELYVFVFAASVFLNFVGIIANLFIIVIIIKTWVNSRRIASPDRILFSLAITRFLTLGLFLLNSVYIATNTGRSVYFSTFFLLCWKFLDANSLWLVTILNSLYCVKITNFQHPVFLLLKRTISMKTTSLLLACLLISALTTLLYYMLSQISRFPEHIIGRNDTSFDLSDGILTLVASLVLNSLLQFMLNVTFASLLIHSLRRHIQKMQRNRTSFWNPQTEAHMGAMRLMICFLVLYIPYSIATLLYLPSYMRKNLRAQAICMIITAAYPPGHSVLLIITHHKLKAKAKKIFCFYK
Experiment: Calcium imaging assay (FLIPR), HEK293T-Gα16gust44 cells transfected with mouse Tas2r108
Format: cell-based
Conditions: for Δ F/F: Tas2r108
Summary of the method: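 Read-out is Fluo-4 fluorescence change (ΔF/F) after automated application of bile acids (DMSO stocks) to transiently transfected cells. Values are corrected for empty-vector cells and normalized to buffer. Dose-response from three independent experiments in duplicate; threshold concentration set at p < 0.01 versus mock.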

## C[C@H](CCC(=O)NCCS(=O)(=O)O)[C@H]1CC[C@H]2[C@@H]3[C@H](O)C[C@@H]4C[C@H](O)CC[C@]4(C)[C@H]3C[C@H](O)[C@]12C [Taurocholic Acid, taurocholic acid]
conc. 0,01 mM
  Δ F/F: 0.0164
conc. 0,1 mM
  Δ F/F: 0.02829
conc. 0,03 mM
  Δ F/F: 0.01249
conc. 0,3 mM
  Δ F/F: 0.06351
conc. 0,001 mM
  Δ F/F: 0.009911
conc. 1 mM
  Δ F/F: 0.1676
conc. 0,003 mM
  Δ F/F: 0.0148
Time 0 s
  RLU: 0 RLU
Time 2 s
  RLU: -20.2593 RLU
Time 4 s
  RLU: -40.462 RLU
Time 6 s
  RLU: -30.0161 RLU
Time 8 s
  RLU: -12.374 RLU
Time 12 s
  RLU: -13.3496 RLU
Time 14 s
  RLU: -6.544 RLU
Time 16 s
  RLU: -15.3343 RLU
Time 18 s
  RLU: -11.3649 RLU
Time 18.781 s
  RLU: 0.4416 RLU
Time 20.781 s
  RLU: -36.0442 RLU
Time 22.781 s
  RLU: -43.651 RLU
Time 24.781 s
  RLU: -41.1365 RLU
Time 26.781 s
  RLU: -18.6 RLU
Time 28.781 s
  RLU: 11.2728 RLU
Time 30.781 s
  RLU: 33.5132 RLU
Time 32.781 s
  RLU: 71 RLU
Time 34.781 s
  RLU: 95.3158 RLU
Time 36.781 s
  RLU: 97.2719 RLU
Time 38.781 s
  RLU: 144.173 RLU
Time 40.781 s
  RLU: 134.881 RLU
Time 42.781 s
  RLU: 146.815 RLU
Time 44.781 s
  RLU: 188.478 RLU
Time 46.781 s
  RLU: 187.465 RLU
Time 48.781 s
  RLU: 214.327 RLU
Time 50.781 s
  RLU: 211.162 RLU
Time 52.781 s
  RLU: 236.861 RLU
Time 54.781 s
  RLU: 237.067 RLU
Time 56.781 s
  RLU: 230.295 RLU
Time 58.781 s
  RLU: 253.142 RLU
Time 60.781 s
  RLU: 220.824 RLU
Time 62.781 s
  RLU: 245.001 RLU
Time 64.781 s
  RLU: 248.53 RLU
Time 66.781 s
  RLU: 284.462 RLU
Time 68.781 s
  RLU: 254.576 RLU
Time 70.781 s
  RLU: 279.831 RLU
Time 72.781 s
  RLU: 269.677 RLU
Time 74.781 s
  RLU: 263.013 RLU
Time 76.781 s
  RLU: 268.161 RLU
Time 78.781 s
  RLU: 271.517 RLU
Time 80.781 s
  RLU: 261.286 RLU
Time 82.781 s
  RLU: 284.591 RLU
Time 84.781 s
  RLU: 263.187 RLU
Time 86.781 s
  RLU: 264.054 RLU
Time 88.781 s
  RLU: 257.931 RLU
Time 90.781 s
  RLU: 266.719 RLU
Time 92.781 s
  RLU: 280.373 RLU
Time 94.781 s
  RLU: 260.776 RLU
Time 96.781 s
  RLU: 264.943 RLU
Time 98.781 s
  RLU: 262.119 RLU
Time 100.781 s
  RLU: 242.991 RLU
Time 102.781 s
  RLU: 248.884 RLU
Time 104.781 s
  RLU: 234.786 RLU
Time 106.781 s
  RLU: 246.521 RLU
Time 108.781 s
  RLU: 245.379 RLU
Time 110.781 s
  RLU: 221.773 RLU
Time 112.781 s
  RLU: 255.593 RLU
Time 114.781 s
  RLU: 236.786 RLU
Time 116.781 s
  RLU: 246.038 RLU
Time 118.781 s
  RLU: 236.543 RLU
Time 120.781 s
  RLU: 242.472 RLU
Time 122.781 s
  RLU: 225.877 RLU
Time 124.781 s
  RLU: 231.718 RLU
Time 126.781 s
  RLU: 218.383 RLU
Time 128.781 s
  RLU: 219.672 RLU
Time 130.781 s
  RLU: 215.513 RLU
Time 132.781 s
  RLU: 219.132 RLU
Time 134.781 s
  RLU: 219.383 RLU
Time 136.781 s
  RLU: 199.62 RLU
Time 137.562 s
  RLU: 222.887 RLU
Time 143.562 s
  RLU: 216.156 RLU
Time 149.562 s
  RLU: 209.286 RLU
Time 155.562 s
  RLU: 217.366 RLU
Time 161.562 s
  RLU: 220.781 RLU
Time 167.562 s
  RLU: 219.02 RLU
Time 173.562 s
  RLU: 233.427 RLU
Time 179.562 s
  RLU: 239.06 RLU
Time 185.562 s
  RLU: 225.962 RLU
Time 191.562 s
  RLU: 229.727 RLU
Time 197.562 s
  RLU: 239.899 RLU
Time 203.562 s
  RLU: 214.938 RLU
Time 209.562 s
  RLU: 251.411 RLU
Time 215.562 s
  RLU: 226.847 RLU
Time 221.562 s
  RLU: 216.644 RLU
Time 227.562 s
  RLU: 259.359 RLU
Time 233.562 s
  RLU: 219.243 RLU
Time 239.562 s
  RLU: 236.142 RLU
Time 245.562 s
  RLU: 237.626 RLU
Time 293.562 s
  RLU: 221.03 RLU
Time 299.562 s
  RLU: 234.317 RLU
Time 305.562 s
  RLU: 241.837 RLU
Time 311.562 s
  RLU: 254.495 RLU
Time 317.562 s
  RLU: 265.787 RLU
Time 323.562 s
  RLU: 251.038 RLU
Time 329.562 s
  RLU: 233.221 RLU
Time 335.562 s
  RLU: 247.117 RLU
Time 341.562 s
  RLU: 273.956 RLU
Time 347.562 s
  RLU: 268.956 RLU
Time 353.562 s
  RLU: 264.083 RLU
Time 359.562 s
  RLU: 275.281 RLU
P < 0.01 vs empty vector
  Activation threshold concentration Tas2r108: 100 µM
